According to ChEMBL document CHEMBL1154199, “Design, synthesis and evaluation of novel 5,6-dimethoxy-1-oxo-2,3-dihydro-1H-2-indenyl-3,4-substituted phenyl methanone analogues” (Bioorg Med Chem Lett, 2009):

target: Acetylcholinesterase (Electrophorus electricus, UniProt O42275); assay: Inhibition of Electrophorus electricus AChE by Ellman's method; conditions: not given
Sequence (O42275 whole entry): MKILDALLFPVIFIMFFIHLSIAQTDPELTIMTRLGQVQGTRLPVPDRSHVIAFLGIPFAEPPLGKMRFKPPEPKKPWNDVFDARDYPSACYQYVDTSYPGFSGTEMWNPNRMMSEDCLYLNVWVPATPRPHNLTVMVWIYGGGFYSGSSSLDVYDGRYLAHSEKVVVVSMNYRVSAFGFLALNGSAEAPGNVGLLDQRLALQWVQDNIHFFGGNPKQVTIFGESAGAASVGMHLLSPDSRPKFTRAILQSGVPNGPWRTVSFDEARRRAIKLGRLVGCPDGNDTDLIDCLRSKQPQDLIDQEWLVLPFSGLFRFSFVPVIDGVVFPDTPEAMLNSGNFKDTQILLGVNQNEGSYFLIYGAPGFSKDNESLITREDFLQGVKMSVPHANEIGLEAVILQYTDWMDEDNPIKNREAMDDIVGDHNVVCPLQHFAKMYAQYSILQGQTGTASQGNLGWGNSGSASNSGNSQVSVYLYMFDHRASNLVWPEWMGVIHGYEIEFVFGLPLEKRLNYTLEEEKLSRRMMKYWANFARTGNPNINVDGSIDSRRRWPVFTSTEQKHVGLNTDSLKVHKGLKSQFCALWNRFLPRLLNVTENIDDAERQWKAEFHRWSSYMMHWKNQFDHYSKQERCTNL

SMILES	IC50
COc1cc2c(cc1OC)C(=O)C(C(=O)c1cccc([N+](=O)[O-])c1)C2 (centres undefined)	Not Active

same assay, conditions: read-out: IC50

SMILES	IC50 [µM]
COc1cc2c(cc1OC)C(=O)C(C(=O)c1ccc(Br)cc1)C2 (centres undefined)	45
COc1cc2c(cc1OC)C(=O)C(C(=O)c1ccccc1)C2 (centres undefined)	21
COc1cc2c(cc1OC)C(=O)C(C(=O)c1ccc(Cl)cc1)C2 (centres undefined)	41.2
COc1ccc(C(=O)C2Cc3cc(OC)c(OC)cc3C2=O)cc1OC (centres undefined)	4.3
COc1ccc(C(=O)C2Cc3cc(OC)c(OC)cc3C2=O)cc1 (centres undefined)	6.2
COc1cc2c(cc1OC)C(=O)C(C(=O)c1ccc(F)cc1)C2 (centres undefined)	42
COc1cc2c(cc1OC)C(=O)C(C(=O)c1cccs1)C2 (centres undefined)	8.6
COc1cc2c(cc1OC)C(=O)C(C(=O)c1ccc(N(C)C)cc1)C2 (centres undefined)	29.4
COc1cc2c(cc1OC)C(=O)C(C(=O)c1ccccc1Cl)C2 (centres undefined)	64
COc1cc2c(cc1OC)C(=O)C(C(=O)c1c(Cl)cccc1Cl)C2 (centres undefined)	102
COc1cc2c(cc1OC)C(=O)C(C(=O)c1ccc(C#N)cc1)C2 (centres undefined)	53
COc1cc2c(cc1OC)C(=O)C(C(=O)c1cc(OC)c(OC)c(OC)c1)C2 (centres undefined)	2.7
COc1cc2c(cc1OC)C(=O)C(C(=O)c1ccco1)C2 (centres undefined)	9.4
